Read-outs that look alike come from different tables or passages of the source. No end group written: not given here.
Assays:
Assay in all cases: biochemical
DR1 (DRB1*0101) = DR1 (DRB1*0101) (Homo sapiens, UniProt P01903+P01911, A100R/D57E/F55L/F60I/F76Y/I96L/L162R/M171V/P40L/Q125E/R42F/V115G/Y59C); assay type: binding
DR4w4 (DRB1*0401) = DR4w4 (DRB1*0401) (Homo sapiens, UniProt P01903+P01911, A100K/A169T/F76Y/I96L/K127E/L162R/M171V/N62H/P40V/Q125Y/R42H/S133A/S149N/S66Y/V115G/V209L/W38E); assay type: binding
DR7 (DRB1*0701) = DR7 (DRB1*0701) (Homo sapiens, UniProt P01903+P01911, A100R/A102G/A103Q/D57E/D86V/E43K/F76Y/K127E/L162R/M171V/P40G/Q125H/Q99D/R33Q/R42Y/R54Q/S133A/S66F/T210M/V115G/Y107V/Y59L/Y89S); assay type: binding
DRB1*0301 = DRB1*0301 (Homo sapiens, UniProt P01903+P01911, A100K/A102G/A103R/A169T/F55Y/I96L/K41T/L162R/M171V/P40S/Q125H/Q178H/Q39Y/R42S/S66N/T106N/T262R/W38E/Y61H); assay type: binding
Sequence of DRB1*0301 (P01903 26-254 limits assumed, other chains not shown): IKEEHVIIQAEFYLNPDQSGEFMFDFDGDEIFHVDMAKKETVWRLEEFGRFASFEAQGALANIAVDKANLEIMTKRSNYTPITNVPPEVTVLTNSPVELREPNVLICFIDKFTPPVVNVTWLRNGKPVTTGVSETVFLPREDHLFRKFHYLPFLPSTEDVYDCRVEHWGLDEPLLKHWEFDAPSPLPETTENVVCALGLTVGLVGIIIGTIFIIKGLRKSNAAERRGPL

DRB1*0405 = DRB1*0405 (Homo sapiens, UniProt P01903+P01911, A100R/A169T/D86S/F76Y/I96L/K127E/L162R/M171V/N62H/P40V/Q125Y/R42H/S133A/S149N/S66Y/V115G/V209L/W38E); assay type: binding
DRB1*0901 = DRB1*0901 (Homo sapiens, UniProt P01903+P01911, A100R/A103E/D57H/D86V/F55Y/F60I/F76Y/I96F/K127E/L162R/M171V/P40D/Q125H/Q99R/R33Q/R42F/S133A/S66N/T210M/V115G/W38K/Y107V/Y59G/Y89S); assay type: binding
DRB1*1201 = DRB1*1201 (Homo sapiens, UniProt P01903+P01911, A100R/A169T/D57E/D86V/F55L/H45Y/K41T/L162R/M171V/P40S/Q125H/Q178H/Q39Y/Q99D/R42G/S66L/T262R/V114A/V67L/W38E/Y59H/Y61H/Y89S); assay type: binding
DRB1*1501 = DRB1*1501 (Homo sapiens, UniProt P01903+P01911); assay type: binding
DRB1*1101 = DRB1*1101 (Homo sapiens, UniProt P01903+P01911, A100R/A169T/A87E/I96F/K41T/L162R/M171V/P40S/Q125H/Q178H/Q39Y/Q99D/R42S/S66Y/T262R/V115G/W38E)
Sequence of DRB1*1101 (P01903 26-254 limits assumed, other chains not shown): as above

DRB5*0101 = DRB5*0101 (Homo sapiens, UniProt P01903+Q30154)
DRB1*0802 = DRB1*0802 (Homo sapiens, UniProt P01903+P01911, A100R/A103L/A169T/F76Y/H45Y/I96F/K41T/L162R/M171V/P40S/Q125H/Q178H/Q39Y/Q99D/R218S/R42G/S66Y/V115G/W38E); assay type: binding
DRB1*1302 = DRB1*1302 (Homo sapiens, UniProt P01903+P01911, A100E/A169T/K41T/L162R/M171V/P40S/Q125H/Q178H/Q39Y/Q99D/R42S/S66N/T262R/V115G/W38E/Y61H); assay type: binding
Sequence of DRB1*1302 (P01903 26-254 limits assumed, other chains not shown): as above

DRB4*0101 = DRB4*0101 (Homo sapiens, UniProt P01903+P13762, G164S); assay type: binding

Compound | IC50 (DR1 (DRB1*0101)) | IC50 (DR4w4 (DRB1*0401)) | IC50 (DR7 (DRB1*0701)) | IC50 (DRB1*0301) | IC50 (DRB1*0405) | IC50 (DRB1*0901) | IC50 (DRB1*1201) | IC50 (DRB1*1501) | IC50 (DRB1*1101; Binding affinity DRB1 *1101) | IC50 (DRB5*0101; Binding affinity DRB5 *0101) | IC50 (DRB1*0802) | IC50 (DRB1*1302) | IC50 (DRB4*0101) | IC50 (DRB5*0101) | IC50 (DRB1*1101)
AQEVHNDAQVLHVLK [Peptide 90.0047] | 407 nM | 4530 nM | 7800 nM | 21 nM | > 20 µM | 10200 nM | > 20000 nM | 2540 nM | 10700 nM | > 20 µM | – | – | – | – | –
DRGVLILLLIRFKCG [Peptide 89.0099] | 20 nM | 1480 nM | 384 nM | 470 nM | 3.34 µM | – | 711 nM | – | 1630 nM | 0.083 µM | 4730 nM | – | – | – | –
KSLFGMSLMKFLQGS [Peptide 89.0020] | – | 573 nM | 21 nM | > 20000 nM | – | 310 nM | 944 nM | 2110 nM | 535 nM | – | – | 4670 nM | 449 nM | – | –
RETIEKLLSKLLCVS [Peptide 89.0006] | 199 nM | > 20000 nM | 187 nM | 13000 nM | 6.17 µM | 6480 nM | 523 nM | 232 nM | 715 nM | 7.07 µM | 652 nM | 600 nM | – | – | –
DDRWPYLHSRLVVFT [Peptide 89.0058] | 29 nM | > 20000 nM | 68 nM | > 20000 nM | – | 158 nM | 297 nM | 284 nM | – | > 20 µM | 1700 nM | 2190 nM | 297 nM | – | –
ESDMAFEYALLADSN [Peptide 90.0055] | 57 nM | 24 nM | – | 591 nM | – | 826 nM | 16300 nM | 428 nM | 4680 nM | – | 5730 nM | 1850 nM | 165 nM | – | –
RYRFQKYKTLFVDVT [Peptide 90.0019] | 74 nM | 623 nM | 43 nM | 5630 nM | – | 226 nM | 4510 nM | 590 nM | 728 nM | – | 407 nM | 2170 nM | 4110 nM | – | –
PHAFPFDKNGNPVYE [Peptide 90.0106] | 517 nM | – | 7120 nM | 930 nM | 7.19 µM | – | 671 nM | 2790 nM | > 20000 nM | > 20 µM | > 20000 nM | 1390 nM | – | – | –
LKVLIQPYSIYAHLQ [Peptide 89.0098] | – | 524 nM | 26 nM | 191 nM | 2.24 µM | 12800 nM | 237 nM | 79 nM | 681 nM | 0.993 µM | 4770 nM | 677 nM | – | – | –
GKSLFGMSLMKFLQG [Peptide 89.0019] | 17 nM | 468 nM | 16 nM | 2740 nM | – | 148 nM | 80 nM | 2780 nM | 1360 nM | 0.513 µM | 704 nM | 2030 nM | 369 nM | – | –
QQTVCREGVKRRLIL [Peptide 90.0129] | 5890 nM | 82 nM | > 20000 nM | 711 nM | – | 3920 nM | 12700 nM | > 20000 nM | 1020 nM | – | 3740 nM | > 20000 nM | 11 nM | > 20 µM | –
CC(C)C[C@H](NC(=O)[C@@H](NC(=O)[C@H](Cc1c[nH]c2ccccc12)NC(=O)[C@H](CC(=O)O)NC(=O)[C@H](CCC(=O)O)NC(=O)[C@@H](NC(=O)[C@H](CCCCN)NC(=O)[C@H](Cc1ccc(O)cc1)NC(=O)[C@H](CCCNC(=N)N)NC(=O)[C@H](CO)NC(=O)[C@@H](N)CCC(N)=O)[C@@H](C)O)[C@@H](C)O)C(=O)N[C@@H](CCC(N)=O)C(=O)N[C@@H](CC(=O)O)C(=O)N[C@H](C(=O)N[C@@H](CS)C(=O)O)[C@@H](C)O [Peptide 90.0179] | – | 71 nM | 6500 nM | 335 nM | 1.59 µM | 1970 nM | 193 nM | 345 nM | – | – | 585 nM | 71 nM | – | > 20 µM | 2090 nM
LKSFLKGTPKKNCLV [Peptide 89.0035] | 30 nM | 320 nM | – | > 20000 nM | – | 2690 nM | 3230 nM | 5190 nM | – | – | 208 nM | 430 nM | 4740 nM | – | –
MNYVVWDSIYYITET [Peptide 90.0214] | 2610 nM | – | 55 nM | 151 nM | 0.452 µM | 888 nM | 1140 nM | 3090 nM | 1620 nM | 18.3 µM | > 20000 nM | 17 nM | – | – | –
RLNVCQDKILTHYEN [Peptide 90.0160] | 2.7 nM | 3.5 nM | 7980 nM | 307 nM | – | 50 nM | 256 nM | 3800 nM | 372 nM | 1.64 µM | – | 96 nM | 0.61 nM | – | –

— US9340577B2, “HLA binding motifs and peptides and their uses” (priority 1992, dated 2016)
